pIC50: −log10 of the molar value.
Test system: not given
Assay: not given
Settings: from C=CCCCCCOC[C@@H](NC(=O)[C@@H](Cc1ccc(OCC=C)cc1)NC(=O)OCC1c2ccccc2-c2ccccc21)C(C)C; rcm bond; dichloro(o-isopropoxyphenylmethylene)(tricyclohexylphosphine)ruthenium (Hoveyda-Grubbs catalyst); dichloromethane; 3.5 mM; 40.0 °C; 24.0 h

SMILES	ring closure, yield of all isomers [%]
CC(C)[C@H]1COCCCCCC=CCOc2ccc(cc2)C[C@@H](NC(=O)OCC2c3ccccc3-c3ccccc32)C(=O)N1	90.4

Same assay, conditions: from C=CCOC[C@@H](NC(=O)[C@@H](Cc1ccc(OCC=C)cc1)NC(=O)OCC1c2ccccc2-c2ccccc21)C(C)C; rcm bond; dichloro(o-isopropoxyphenylmethylene)(tricyclohexylphosphine)ruthenium (Hoveyda-Grubbs catalyst); dichloromethane; 3.61 mM; 40.0 °C; 24.0 h

SMILES	ring closure, yield of all isomers [%]
CC(C)[C@H]1COCC=CCOc2ccc(cc2)C[C@@H](NC(=O)OCC2c3ccccc3-c3ccccc32)C(=O)N1	86.6

Same assay, conditions: from C=CCOC[C@@H](NC(=O)[C@@H](Cc1cn(CC=C)cn1)NC(=O)OCc1ccccc1)C(C)C; rcm bond; benzylidene[1,3-bis(2,4,6-trimethylphenyl)-2-imidazolidinylidene]dichloro(tricyclohexylphosphine)ruthenium (Grubbs II catalyst); dichloromethane; 4.38 mM; 25.0 °C

SMILES	ring closure, yield of all isomers [%]
CC(C)[C@H]1COCC=CCn2cnc(c2)C[C@@H](NC(=O)OCc2ccccc2)C(=O)N1	73.3

Target: TAFIa (Homo sapiens (Human), UniProt Q96IY4)
Assay: TAFIa inhibition, Actichrome plasma TAFI Activity Kit (American Diagnostica)
Type: biochemical
Settings: chromogenic read-out at 420 nm, 15 min preincubation at room temperature, pH 7.4, duplicate determination
Experimental: The prepared substances were tested for TAFIa inhibition using the Actichrome plasma TAFI Activity Kit from American Diagnostica (Pr. No. 874). This entailed adding 28 μl of assay buffer (20 mM Hepes, 150 mM NaCl, pH 7.4) and 10 μl of TAFIa (American Diagnostica Pr. No. 874TAFIA; 2.5 μg/ml) to 2 μl of 2.5 mM DMSO solution of the substance and incubating in a 96 half-well microtiter plate at room temperature for 15 minutes. The enzyme reaction was started by adding 10 μl of TAFIa developer (prediluted 1:2 with assay buffer). The time course of the reaction was followed at 420 nm in a microtiter plate reader (SpectraMax plus 384; Molecular Devices) for 15 minutes.
The IC50 values were calculated from the averaged values (duplicate determination) of serial dilutions of the substance with the aid of the Softmax Pro software (version 4.8; Molecular Devices).

Sequence of TAFIa (Q96IY4 115-423): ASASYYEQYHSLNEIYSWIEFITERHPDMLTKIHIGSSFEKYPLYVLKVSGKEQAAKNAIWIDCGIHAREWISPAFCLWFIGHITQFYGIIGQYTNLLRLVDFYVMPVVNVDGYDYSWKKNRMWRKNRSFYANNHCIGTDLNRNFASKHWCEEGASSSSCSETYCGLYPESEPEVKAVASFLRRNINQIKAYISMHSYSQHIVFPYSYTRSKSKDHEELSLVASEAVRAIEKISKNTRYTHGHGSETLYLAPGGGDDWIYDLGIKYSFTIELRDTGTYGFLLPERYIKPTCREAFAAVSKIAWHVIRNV

pIC50	SMILES
7.66	CC(C)[C@H]1COCCC(=O)Nc2ccc(cc2)C[C@@H](NC(=O)N[C@@H](CCCCN)C(=O)O)C(=O)N1 [Example 7-1, (S)-6-Amino-2-[3-((8S,11R)-8-isopropyl-3,10-dioxo-6-oxa-2,9-diazabicyclo[11.2.2]heptadeca-1(16),13(17),14-trien-11-yl)ureido]hexanoic acid]
7.72	CC(C)(C)[C@H]1COCCCCOc2ccc(cc2)C[C@@H](NC(=O)N[C@@H](CCCCN)C(=O)O)C(=O)N1 [Example 1-9, (S)-6-Amino-2-[3-((9S,12R)-9-tert-butyl-11-oxo-2,7-dioxa-10-azabicyclo[12.2.2]octadeca-1(17),14(18),15-trien-12-yl)ureido]hexanoic acid]
8.05	CC(C)[C@H]1COCCCCOc2ccc(cc2)C[C@@H](NC(=O)N[C@@H](Cc2ccc(N)nc2)C(=O)O)C(=O)N1 [Example 5-2, (S)-3-(6-Aminopyridin-3-yl)-2-[3-((9S,12R)-9-isopropyl-11-oxo-2,7-dioxa-10-azabicyclo[12.2.2]octadeca-1(17),14(18), 15-trien-12-yl)ureido]propionic acid]
7.68	CC(C)[C@H]1COCCCCc2ccc(cc2)C[C@@H](NC(=O)N[C@@H](Cc2ccc(N)nc2)C(=O)O)C(=O)N1 [Example 6-2, (S)-3-(6-Aminopyridin-3-yl)-2-[3-((3R,6S)-6-isopropyl-4-oxo-8-oxa-5-azabicyclo[11.2.2]heptadeca-1(16),13(17), 14-trien-3-yl)ureido]propionic acid]
7.49	Nc1ccc(C[C@H](NC(=O)N[C@@H]2Cc3ccc(cc3)OCCCCOC[C@H](C3CC3)NC2=O)C(=O)O)cn1 [Example 5-3, (S)-3-(6-Aminopyridin-3-yl)-2-[3-((9S,12R)-9-cyclopropyl-11-oxo-2,7-dioxa-10-azabicyclo[12.2.2]octadeca-1(17),14(18), 15-trien-12-yl)ureido]propionic acid]
7.23	CC(C)[C@H]1COCC(O)C(O)COc2ccc(cc2)C[C@@H](NC(=O)NC(Cc2ccc(N)nc2)C(=O)O)C(=O)N1 (stereo partly drawn) [Example 8-3, 3-(6-Aminopyridin-3-yl)-2-[3-((9S,12R)-4,5-dihydroxy-9-isopropyl-11-oxo-2,7-dioxa-10-azabicyclo[12.2.2]octadeca-1(17),14(18), 15-trien-12-yl)ureido]propionic acid]
7.40	CC(C)[C@H]1COCCNC(=O)c2ccc(cc2)C[C@@H](NC(=O)N[C@@H](Cc2ccc(N)nc2)C(=O)O)C(=O)N1 [Example 7-4, (S)-3-(6-Aminopyridin-3-yl)-2-[3-((8S,11R)-8-isopropyl-2,10-dioxo-6-oxa-3,9-diazabicyclo[11.2.2]heptadeca-1(16),13(17), 14-trien-11-yl)ureido]propionic acid]
7.28	CC(C)[C@H]1COCCCCn2cnc(c2)C[C@@H](NC(=O)N[C@@H](Cc2ccc(N)nc2)C(=O)O)C(=O)N1 [Example 6-1, (S)-3-(6-Aminopyridin-3-yl)-2-[3-((8S,11R)-8-isopropyl-10-oxo-6-oxa-1,9,14-triazabicyclo[11.2.1]hexadeca-13(16),14-dien-11-yl)ureido]propionic acid]
8.22	CC(C)[C@H]1COCCCCOc2ccc(cc2)C[C@@H](NC(=O)N[C@@H](CCCCN)C(=O)O)C(=O)N1 [Example 1-1, (S)-6-Amino-2-[3-((9S,12R)-9-isopropyl-11-oxo-2,7-dioxa-10-azabicyclo[12.2.2]octadeca-1(17),14(18),15-trien-12-yl)ureido]hexanoic acid]
6.09	NCCCC[C@H](NC(=O)N[C@@H]1Cc2ccc(cc2)OCCCCOC[C@H](C2CCCCC2)NC1=O)C(=O)O [Example 1-6, (S)-6-Amino-2-[3-((9S,12R)-9-cyclohexyl-11-oxo-2,7-dioxa-10-azabicyclo[12.2.2]octadeca-1(17),14(18),15-trien-12-yl)ureido]hexanoic acid]
6.57	CC1(C)COCCCCOc2ccc(cc2)C[C@@H](NC(=O)N[C@@H](CCCCN)C(=O)O)C(=O)N1 [Example 1-3, (S)-6-Amino-2-[3-((R)-9,9-dimethyl-11-oxo-2,7-dioxa-10-azabicyclo[12.2.2]octadeca-1(17),14(18),15-trien-12-yl)ureido]hexanoic acid]
7.77	CC(C)[C@H]1COCCCCCCCC[C@@H](NC(=O)N[C@@H](CCCCN)C(=O)O)C(=O)N1 [Example 4-1, (S)-6-Amino-2-[3-((3S,6R)-3-isopropyl-5-oxo-1-oxa-4-azacyclotetradec-6-yl)ureido]hexanoic acid]
6.98	NCCCC[C@H](NC(=O)N[C@@H]1Cc2ccc(cc2)OCCCCOC[C@H](Cc2ccccc2)NC1=O)C(=O)O [Example 1-5, (S)-6-Amino-2-[3-((9S,12R)-9-benzyl-11-oxo-2,7-dioxa-10-azabicyclo[12.2.2]octadeca-1(17),14(18),15-trien-12-yl)ureido]hexanoic acid]
7.15	NCCCC[C@H](NC(=O)N[C@@H]1Cc2ccc(cc2)OCCCCOC[C@H](c2ccccc2)NC1=O)C(=O)O [Example 1-4, (S)-6-Amino-2-[3-((9S,12R)-11-oxo-9-phenyl-2,7-dioxa-10-azabicyclo[12.2.2]octadeca-1(17),14(18),15-trien-12-yl)ureido]hexanoic acid]
7.64	CC(C)[C@H]1COCC(O)C(O)COc2ccc(cc2)C[C@@H](NC(=O)N[C@@H](CCCCN)C(=O)O)C(=O)N1 (stereo partly drawn) [Example 8-1, (S)-6-Amino-2-[3-((9S,12R)-4,5-dihydroxy-9-isopropyl-11-oxo-2,7-dioxa-10-azabicyclo[12.2.2]octadeca-1(17),14(18),15-trien-12-yl)ureido]hexanoic acid]
8.06	CC(C)[C@H]1COCCCCCCCCOc2ccc(cc2)C[C@@H](NC(=O)N[C@@H](CCCCN)C(=O)O)C(=O)N1 [Example 2-1, (S)-6-Amino-2-[3-((13S,16R)-13-isopropyl-15-oxo-2,11-dioxa-14-azabicyclo[16.2.2]docosa-1(21), 18(22), 19-trien-16-yl)ureido]hexanoic acid]
7.92	CC(C)[C@H]1COCCCCOc2ccc(cc2F)C[C@@H](NC(=O)N[C@@H](Cc2ccc(N)nc2)C(=O)O)C(=O)N1 [Example 6-3, (S)-3-(6-Aminopyridin-3-yl)-2-[3-((9S,12R)-16-fluoro-9-isopropyl-11-oxo-2,7-dioxa-10-azabicyclo[12.2.2]octadeca-1(17),14(18), 15-trien-12-yl)ureido]propionic acid]
7.54	C[C@H]1COCCCCOc2ccc(cc2)C[C@@H](NC(=O)N[C@@H](CCCCN)C(=O)O)C(=O)N1 [Example 1-8, (S)-6-Amino-2-[3-((9S,12R)-9-methyl-11-oxo-2,7-dioxa-10-azabicyclo[12.2.2]octadeca-1(17),14(18),15-trien-12-yl)ureido]hexanoic acid]
5.04	NCCCC[C@H](NC(=O)N[C@@H]1Cc2ccc(cc2)OCCCCOCCNC1=O)C(=O)O [Example 1-2, (S)-6-Amino-2-[3-((R)-11-oxo-2,7-dioxa-10-azabicyclo[12.2.2]octadeca-1(17),14(18),15-trien12-yl)ureido]hexanoic acid]
8.11	CC(C)[C@H]1COC/C=C/COc2ccc(cc2)C[C@@H](NC(=O)N[C@@H](CCCCN)C(=O)O)C(=O)N1 [Example 3-1, (S)-6-Amino-2-[3-((E)-(9S,12R)-9-isopropyl-11-oxo-2,7-dioxa-10-azabicyclo[12.2.2]octadeca-1(17),4,14(18), 15-tetraen-12-yl)ureido]hexanoic acid]
7.31	CC[C@H]1COCCCCOc2ccc(cc2)C[C@@H](NC(=O)N[C@@H](CCCCN)C(=O)O)C(=O)N1 [Example 1-7, (S)-6-Amino-2-[3-((9S,12R)-9-ethyl-11-oxo-2,7-dioxa-10-azabicyclo[12.2.2]octadeca-1(17),14(18),15-trien-12-yl)ureido]hexanoic acid]
7.26	CC(C)[C@H]1COCCCCOC[C@@H](NC(=O)N[C@@H](Cc2ccc(N)nc2)C(=O)O)C(=O)N1 [Example 6-4, (S)-3-(6-Aminopyridin-3-yl)-2-[3-((3S,6R)-3-isopropyl-5-oxo-1,8-dioxa-4-azacyclododec-6-yl)ureido]propionic acid]
6.19	CC(C)[C@H]1COCCCCOc2ccc(cc2)C[C@@H](NC(=O)N[C@@H](CS(=O)(=O)CCN)C(=O)O)C(=O)N1 [Example 5-1, (R)-3-(2-Aminoethanesulfonyl)-2-[3-((9S,12R)-9-isopropyl-11-oxo-2,7-dioxa-10-azabicyclo[12.2.2]octadeca-1(17),14(18), 15-trien-12-yl)ureido]propionic acid]

Reference: patent publication US9688645B2, “Macrocyclic urea and sulfamide derivatives as inhibitors of TAFIa” (SANOFI, priority 2008, dated 2017)
